Literature values, collected in patent US20240279338A1, “Combination Treatment of Cancer” (Ares Trading S.A., priority 2021, published 2024).

Target: T1, A3 receptor (Homo sapiens, UniProt P0DMS8)
T1 sequence (P0DMS8 1-318): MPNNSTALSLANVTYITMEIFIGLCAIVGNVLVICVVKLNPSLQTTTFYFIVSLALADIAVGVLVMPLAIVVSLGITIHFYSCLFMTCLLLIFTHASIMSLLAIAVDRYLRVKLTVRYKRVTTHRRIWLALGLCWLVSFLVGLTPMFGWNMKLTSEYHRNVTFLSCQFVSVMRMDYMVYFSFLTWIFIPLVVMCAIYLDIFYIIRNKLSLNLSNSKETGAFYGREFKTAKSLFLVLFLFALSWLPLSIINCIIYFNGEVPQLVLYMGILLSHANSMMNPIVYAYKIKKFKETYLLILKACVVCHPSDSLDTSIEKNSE
Conditions: cited from earlier work

SMILES: Nc1ncnc2c1ncn2[C@@H]1O[C@H](CO)[C@@H](O)[C@H]1O [adenosine]
- adenosine sensitivity (affinity) of receptor: 100 nM
